How the values were obtained:
myoblasts (C2C12) = assay: in vitro differentiation induction of myoblasts (C2C12) into skeletal muscle cells in medium containing Colon26 culture supernatant (myotube formation); format: cell-based, Mouse; conditions: Colon26 cells treated at 25 µM for 24 hours; 50% supernatant in horse serum-supplemented DMEM; C2C12 observed on day 9, phase-contrast microscope
Description: Mouse myoblasts (C2C12, RIKEN cell bank) and mouse colon cancer cells (Colon26, RIKEN cell bank) were used. The culture medium used was DMEM medium (Sigma-Aldrich Japan) or RPMI medium (Sigma-Aldrich Japan) supplemented with 10% fetal bovine serum (Gibco), 100 units/mL penicillin G (Sigma-Aldrich Japan) and 100 µg/mL streptomycin (Sigma-Aldrich Japan).
(§1) Colon26 cells were seeded at a concentration of 5 × 10^4 cells/cm^2 in a culture dish with a diameter of 10 mm, and cultured at 37°C, 5% CO2 to 80% to 90% confluency. The medium was then changed to a medium supplemented with 16:0 lysophosphatidylcholine (hereinafter referred to as LPC), 18:0 LPC, 16:0 phosphatidylcholine (hereinafter referred to as PC), or 18:0 PC (all manufactured by Avanti Polar Lipids) at a final concentration of 25 µM, or a medium not containing LPC or PC. The cells were cultured for another 24 hours. After the cells were washed with PBS, the medium was changed to serum-free RPMI medium, and the cells were cultured for another 48 hours. The medium was collected and centrifuged at 4°C and 3000 rpm for 20 minutes to precipitate the cellular components. The supernatant was sterile-filtered using a 0.22 µm sterile filter (Merck Millipore) and stored at -80°C until use.
C2C12 cells were cultured to 80% to 90% confluency in a 6-well culture plate. The medium was changed to DMEM medium supplemented with horse serum (Gibco, final concentration: 2%) or horse serum-supplemented DMEM medium containing 50% supernatant of one of the five types prepared in the above (2), and the cells were cultured for 9 days to induce differentiation into skeletal muscle cells. On day 9, the morphology of the cells was observed under a phase-contrast microscope.

Mesenchymal OP9 cells = assay: in vitro differentiation induction of mesenchymal cells (OP9) into adipocytes in medium containing Colon26 culture supernatant (Oil Red O staining); format: cell-based; conditions: Colon26 cells treated at 25 µM; 10% supernatant in adipocyte differentiation medium; OP9 observed on day 7
Description: as §1
Mesenchymal OP9 cells (RIKEN cell bank) were used. The culture medium used was MEM medium (Sigma-Aldrich Japan) supplemented with 20% fetal bovine serum (Gibco), 100 units/mL penicillin G (Sigma-Aldrich Japan), 100 µg/mL streptomycin (Sigma-Aldrich Japan), and 2 mM L-glutamine.
OP9 cells were seeded at a concentration of 7 × 10^3 cells/cm^2 in a 96-well culture plate and cultured to confluency. […]

IL-6 = IL-6 levels in culture supernatant of colon cancer cells (Colon26) treated with PC or PS (ELISA); format: cell-based, mouse; conditions: 16:0 PC or 18:0 PC 25 µM, PS 100 µg/ml, 24 hours; then 48 hours in serum-free RPMI
Description: Colon26 cells were seeded at a concentration of 5 × 10^4 cells/cm^2 in the medium used in Example 1 in a culture dish with a diameter of 10 mm, and cultured at 37°C, 5% CO2 to 80% to 90% confluency. To the culture dish, 16:0 PC or 18:0 PC was added at a final concentration of 25 µM, and PS (Larodan) was added at a final concentration of 100 µg/ml. The cells were cultured for 24 hours. After the cells were washed with PBS, the medium was changed to serum-free RPMI medium (Wako), and the cells were cultured for another 48 hours. The medium was collected and centrifuged at 4°C and 3000 rpm for 20 minutes to precipitate the cellular components. The supernatant was filtered through a 0.22 µm sterile filter to remove precipitates from the supernatant. The […] IL-6 level in the supernatant was measured using LEGEND MAX Mouse IL-6 ELISA Kit (BioLegend).

[1] = tested on: tumor-bearing mice (Colon26); assay: muscle weight in Colon26 tumor-bearing mice, intravenous PC; format: in vivo; conditions: 3 mg/kg via the tail vein every 3 or 4 days from one week after transplantation; day 36 post-transplantation
Description: (§2) Male BalB/c mice (SLC) at 8 to 9 weeks old were used. Colon26 cells were cultured to 80% to 90% confluency in the same manner as in Example 1 and suspended in PBS to a concentration of 1 × 10^6 cells/mL. Then, 100 µL of the cell suspension was subcutaneously transplanted into the right upper flank of the mice. Every 3 or 4 days, the body weight of the mice was measured, and the general conditions of the mice were observed. The tumor size [1/2(a × b^2) mm^3] was calculated by measuring the maximum diameter (a) and the minimum diameter (b) of the tumor.
(§3) Hydrogenated PC (HSPC; Avanti Polar Lipids) was dissolved in ethanol to a concentration of 50 mM and stored at -20°C until use.
(§4) We set up three groups of mice: a non-cancer cell transplantation group (control), a cancer cell transplantation group with administration of a solvent (PBS), and a cancer cell transplantation group with administration of PC (PC). […]
(§5) The mice were euthanized on day 36 post-transplantation of Colon26 cells, and the gastrocnemius and tibialis muscles were harvested to measure the weight. Twenty milligrams of each muscle tissue was homogenized using High Power Homogenizer ASG50 (AS ONE Corporation), and the total RNA was recovered using RNeasy Fibrous Mini Kit (Qiagen). cDNA was synthesized from the total RNA using PrimeScript RT reagent Kit (Takara) and subjected to quantitative PCR (qPCR). […]

MuRF-1 gene = assay: quantitative PCR of MuRF-1 gene in muscle of Colon26 tumor-bearing mice, intravenous PC; format: in vivo, mouse; conditions: 3 mg/kg via the tail vein every 3 or 4 days, day 36 post-transplantation
Description: as §2, §3, §4, §5

Atrogin-1 gene = assay: quantitative PCR of Atrogin-1 gene in muscle of Colon26 tumor-bearing mice, intravenous PC; format: in vivo, mouse; conditions: 3 mg/kg via the tail vein every 3 or 4 days, day 36 post-transplantation
Description: as §2, §3, §4, §5

[2] = tested on: tumor-bearing mice (Colon26); assay: weight of epididymal fat tissue in Colon26 tumor-bearing mice, intravenous PC; format: in vivo; conditions: 3 mg/kg via the tail vein every 3 or 4 days; day 36 post-transplantation
Description: (§6) Mice were transplanted with Colon26 cells in the same manner as in Example 3, and one week later, divided into three groups: a non-cancer cell transplantation group (control), a cancer cell transplantation group with administration of a solvent (PBS, n = 20), and a cancer cell transplantation group with administration of PC (PC, n = 20). PC and a solvent (PBS) were administered by the same dosing schedule as that in Example 3. During the dosing period, the general conditions of the mice were observed every day. The survival rate was calculated by counting the number of dead individuals. The surviving mice were euthanized on day 36 post-transplantation of Colon26 cells, and the epididymal fat tissue was harvested to measure the weight (groups of n = 8 each). Total RNA was recovered from less than 100 mg of the epididymal fat tissue, and cDNA was synthesized and subjected to qPCR in the same manner as in Example 3 (groups of n = 2 each). The reagents and devices were the same as those used in Example 3. The primer set shown below was used to detect the Leptin gene, which is known to have the function of maintaining fat tissue. The primer set for amplification of the mouse GAPDH gene was the same as that used in Example 3.

Leptin gene = assay: quantitative PCR of Leptin gene in epididymal fat tissue of Colon26 tumor-bearing mice, intravenous PC; format: in vivo, mouse; conditions: 3 mg/kg via the tail vein every 3 or 4 days, day 36 post-transplantation
Description: as §6
Primer set for amplification of mouse Leptin gene: • sense 5'-[…]-3' (SEQ ID NO: 7), and • anti-sense 5'-GCCATCCAGGCTCTCTGG-3' (SEQ ID NO: 8).

[3] = tested on: tumor-bearing mice (Colon26); assay: survival rate of Colon26 tumor-bearing mice, intravenous PC; format: in vivo; conditions: 3 mg/kg via the tail vein every 3 or 4 days; compared with solvent (PBS) group
Description: as §6

## CCCCCCCCCCCCCCCC(=O)OCC(O)COP(=O)([O-])OCC[N+](C)(C)C (stereo not drawn) [16:0 LPC, 16:0 lysophosphatidylcholine]
Myoblasts (C2C12)
  myotube formation: myotube formation was observed
Mesenchymal OP9 cells
  adipocyte differentiation (Oil Red O): inhibition of adipocyte differentiation was prevented

## CCCCCCCCCCCCCCCC(=O)OCC(COP(=O)([O-])OCC[N+](C)(C)C)OC(=O)CCCCCCCCCCCCCCC (stereo not drawn) [16:0 PC, 16:0 phosphatidylcholine]
Myoblasts (C2C12)
  myotube formation: myotube formation was observed
IL-6
  IL-6 levels in the culture supernatant of Colon26 cells: direct inhibitory effect on the expression of IL-6 in cancer cells

## CCCCCCCCCCCCCCCCCC(=O)OCC(O)COP(=O)([O-])OCC[N+](C)(C)C (stereo not drawn) [18:0 LPC]
Myoblasts (C2C12)
  myotube formation: myotube formation was observed

## CCCCCCCCCCCCCCCCCC(=O)OCC(COP(=O)([O-])OCC[N+](C)(C)C)OC(=O)CCCCCCCCCCCCCCCCC (stereo not drawn) [18:0 PC]
Myoblasts (C2C12)
  myotube formation: myotube formation was observed
IL-6
  IL-6 levels in the culture supernatant of Colon26 cells: direct inhibitory effect on the expression of IL-6 in cancer cells

## Hydrogenated PC
[1]
  weight of the gastrocnemius muscle (Gastrocnemius): muscle weight loss was not observed
  weight of the tibialis muscle (Tibialis): muscle weight loss was not observed
MuRF-1 gene
  expression of the MuRF-1 gene: comparable to that in normal mice
Atrogin-1 gene
  expression of the Atrogin-1 gene: comparable to that in normal mice
[2]
  weight of the epididymal fat tissue: weight loss in the fat tissue was not observed
Leptin gene
  expression of the Leptin gene: comparable to that in normal mice
[3]
  survival rate: improved

## phosphatidylserine [PS]
IL-6
  IL-6 levels in the culture supernatant of Colon26 cells: direct inhibitory effect on the expression of IL-6 in cancer cells

— EP4740950A1, “PROPHYLACTIC OR AMELIORATING AGENT FOR CACHEXIA” (The University of Osaka, priority 2023, dated 2025)
